Test results as given in patent publication US9060943B2, “Compositions comprising trans-tert-butyl cyclohexanol as skin irritation-reducing agent” (SYMRISE AG, priority 2009, dated 2015).

Assays:
[1] = target: T1, recombinant human TRPV1 (Homo sapiens, UniProt Q8NER1); experiment: Calcium assay (Fluo-4) for TRPV1 antagonism in HEK293 cells in the presence of capsaicin; type: cell-based; settings: for TRPV1 antagonism (result in words), pre-incubation mode: isomer applied 10 min before addition of capsaicin; for TRPV1 antagonism (result in words): parallel application with capsaicin as agonist
T1 construct: expressed in transfected cells
Protocol: Three samples of cis- and/or trans-4-tert-butyl cyclohexanol were assessed: 1) 99% trans-isomer, 2) an isomeric mixture enriched in the cis-isomer (59% cis, 41% trans) and 3) 99% cis-isomer.
Calciumassay based on fluorescent dye Fluo-4-AM
Negative Control: KH-buffer (solvent)
Positive Control: lonomycin (generell calcium induction)
Positive Control Capsaicin (natural agonist of TRPV1)
One day prior to performing the assay, HEK293 cells stably overexpressing recombinant human TRPV1 were plated onto black-walled assay plates, at a density of 45,000 cells per well. Using the FLEX Station system the change of the cellular calcium concentration (calcium influx) induced by TRPV1 activation was monitored using the calcium sensitive fluorescent dye fluo-4 (494 nm/516 nm (exitation/emission)). The pharmacological TRPV1 antagonist Ruthenium Red (1 μM) was used as positive control [J. Biol. Chem. 2004, 279 (34): 35741-8]. The dye-loaded stable cells in plates were placed into the fluorescence microtiter plate reader to monitor fluorescence (excitation 488 nm, emission 520 nm) change after the addition of 50 μl assay buffer (118 mM NaCl; 4.7 mM KCl; 1.2 mM MgSO4; 1.2 mM KH2PO4; 4.2 mM NaHCO3; 1.3 mM CaCl2; 10 mM HEPES (N-(2-hydroxyethyl)-piperazine-N′-2-ethanesulfonic acid) (pH: 7.4)) supplemented with an antagonist. Calcium mobilization was quantified as the change of peak fluorescence (ΔF) over the baseline level (F). The analysis was done with the software of the microtiter plate reader (FLEX Station). Potential TRPV1 antagonists were tested at an effective range of 0.5-50 μM. The test compounds were either applied in parallel to 30 nM capsaicin or 10 min prior to the agonist. TRPV1 antagonists were tested for their antagonistic activity in the presence of 30 nM capsaicin, which is the EC80 effective capsaicin concentration leading to 80% of the maximum capsaicin dependent TRPV1 activation.
Antagonistic efficacy of the isomers of 4-tert-butyl cyclohexanol on transient receptor potential ion channel 1 in cell based fluorescent analysis.
The three samples were tested for TRPV1 antagonism at parallel application with capsaicin as agonist.
TRPV1 antagonist in vitro at incubation prior to capsaicin: cis-4-tert-butyl cyclohexanol and trans-4-tert-butyl cyclohexanol were applied to HEK293 cells 10 min before capsaicin treatment.
We therefore additionally tested the pure cis- and trans-isomers of 4-tert-butyl cyclohexanol respectively in a pre-incubation mode with application of the respective isomer 10 min before addition of capsaicin.

[2] = tested on: volunteers who were sensitive to capsaicin; experiment: Clinical study: stinging and burning at the nasolabial fold, O/W-emulsion with capsaicin with or without active; type: in vivo, human; settings: O/W-emulsion with 31.6 ppm capsaicin and 1 wt. % active on nasolabial fold; evaluated 3 minutes later; 20 volunteers
Protocol: A study was performed with 20 volunteers who were sensitive to capsaicin. […] On day 1 sample c2 was assessed versus control. On day 2 sample c1 was assessed versus control. The stinging and burning effects were evaluted 3 minutes later on the same scale as in Example 1.2.

[3] = tested on: volunteers who were sensitive to capsaicin; experiment: In vivo testing: capsaicin-induced stinging on the cheek, O/W-emulsion versus placebo; design: species or system human; settings: O/W-emulsion with 1 wt. % applied 60 s after 31.6 ppm capsaicin on cheek; evaluated 5 minutes later; 9 volunteers
Protocol: A study was performed with 9 volunteers who were sensitive to capsaicin. […] After 60 seconds all participants sensed a pronounced stinging effect. Then, an O/W-emulsion with 1 wt. % racemic trans-4-tert-butyl cyclohexanol (purity >99 wt. %) was applied on one cheek and the placebo O/W-emulsion on the other cheek (blinded samples).

T1 sequence (Q8NER1 whole entry): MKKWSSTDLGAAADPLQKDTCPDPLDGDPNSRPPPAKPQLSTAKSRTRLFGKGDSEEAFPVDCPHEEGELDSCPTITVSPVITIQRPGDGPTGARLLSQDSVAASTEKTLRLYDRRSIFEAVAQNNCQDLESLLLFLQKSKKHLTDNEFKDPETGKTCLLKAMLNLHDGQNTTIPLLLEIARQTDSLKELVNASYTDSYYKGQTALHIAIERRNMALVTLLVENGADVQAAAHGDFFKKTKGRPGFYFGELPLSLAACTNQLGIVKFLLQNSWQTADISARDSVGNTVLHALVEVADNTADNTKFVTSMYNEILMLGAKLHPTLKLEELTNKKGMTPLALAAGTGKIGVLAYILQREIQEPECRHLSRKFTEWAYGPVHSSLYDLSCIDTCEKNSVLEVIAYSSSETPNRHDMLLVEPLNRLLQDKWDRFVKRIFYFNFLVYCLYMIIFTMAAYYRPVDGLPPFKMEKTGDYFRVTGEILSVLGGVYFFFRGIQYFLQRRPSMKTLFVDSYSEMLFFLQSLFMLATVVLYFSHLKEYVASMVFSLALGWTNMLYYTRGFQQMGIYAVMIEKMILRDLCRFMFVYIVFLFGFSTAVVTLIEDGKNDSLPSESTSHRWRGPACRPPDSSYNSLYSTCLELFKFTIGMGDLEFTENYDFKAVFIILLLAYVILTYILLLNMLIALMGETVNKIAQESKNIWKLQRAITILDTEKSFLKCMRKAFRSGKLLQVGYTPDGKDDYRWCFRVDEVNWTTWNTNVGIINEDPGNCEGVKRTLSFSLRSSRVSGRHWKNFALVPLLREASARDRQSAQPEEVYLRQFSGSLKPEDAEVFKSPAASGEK

SMILES	EC80 effective capsaicin concentration (80% of maximum capsaicin dependent TRPV1 activation) ([1]; agonist, HEK293 cells overexpressing human TRPV1) [µM]	TRPV1 antagonism (result in words), pre-incubation mode [1]	TRPV1 antagonism (result in words) [1]	average rating of inhibition/reduction of stinging and burning on scale 0 to 4 [2]	average rating of reduction of stinging effect on scale 0 (no effect) to 4 (completely suppressed) [3]	IC50 ([1]; parallel application with 30 nM capsaicin as agonist, HEK293 cells overexpressing human TRPV1) [µM]
COc1cc(CNC(=O)CCCC/C=C/C(C)C)ccc1O [capsaicin, reference compound]	0.03					
CC(C)(C)[C@H]1CC[C@@H](O)CC1 [cis-4-tert-butyl cyclohexanol, reference compound]		not active	inactive			
CC(C)(C)[C@H]1CC[C@H](O)CC1 [trans-4-tert-butyl cyclohexanol]		strong activity	significantly more active	2.95	3.10	34.1
